Results on 26 molecules are retold here after patent US20060240048A1 (priority 2002, published 2006).

The structures appear in SMILES notation.

The target of the experiment is T1, human cannabinoid CB2 receptor (Homo sapiens, UniProt P34972).
T1 construct: expressed in transfected cells; host or cells: Saccharomyces cerevisiae strain MMY23
In words: Cannabinoid CB2 receptor agonist activity, yeast reporter assay (FDGlu fluorescence).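 For Emax: 100% equals maximal response of reference agonist HU210.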 As to conditions: for Emax: read-out: efficacy value (Emax) at the cloned human cannabinoid CB2 receptor. The class given is cell-based. Here is the method: The cannabinoid CB2 receptor agonist activity of the compounds of formula (I) was determined in accordance with the following experimental method.
Yeast (Saccharomyces cerevisiae) cells expressing the human cannabinoid CB2 receptor were generated by integration of an expression cassette into the ura3 chromosomal locus of yeast strain MMY23. This cassette consisted of DNA sequence encoding the human CB2 receptor flanked by the yeast GPD promoter to the 5′ end of CB2 and a yeast transcriptional terminator sequence to the 3′ end of CB2. MMY23 expresses a yeast/mammalian chimeric G-protein alpha subunit in which the C-terminal 5 amino acids of Gpa1 are replaced with the C-terminal 5 amino acids of human Gαi3 (as described in Brown et al. (2000), Yeast 16:11-22). Cells were grown at 30° C. in liquid Synthetic Complete (SC) yeast media (Guthrie and Fink (1991), Methods in Enzymology, Vol. 194) lacking uracil, tryptophan, adenine and leucine to late logarithmic phase (approximately 6 OD600/ml).
Agonists were prepared as 10 mM stocks in DMSO. […] Agonist solutions in DMSO (1% final assay volume) were transferred into black, clear bottom, microtitre plates from NUNC (96- or 384-well). […] This mixture (50 ul per well for 384-well plates, 200 ul per well for 96-well plates) was added to agonist in the assay plates (Multidrop 384, Labsystems). After incubation at 30° C. for 24 hours, fluorescence resulting from degradation of FDGlu to fluorescein due to exoglucanase, an endogenous yeast enzyme produced during agonist-stimulated cell growth, was determined using a Spectrofluor microtitre plate reader (Tecan; excitation wavelength: 485 nm; emission wavelength: 535 nm). Fluorescence was plotted against compound concentration and iteratively curve fitted using a four parameter fit to generate a concentration effect value.
where Max[compound X] and Min[compound X] are the fitted maximum and minimum respectively from the concentration effect curve for compound X, and Max[HU210] and Min[HU210] are the fitted maximum and minimum respectively from the concentration effect curve for (6aR,10aR)-3-(1,1′-Dimethylheptyl)-6a,7,10,10a-tetrahydro-1-hydroxy-6,6-dimethyl-6H-dibenzo[b,d]pyran-9-methanol (HU210; available from Tocris). Equieffective molar ratio (EMR) values were calculated from the equation EMR=EC50 [compound X]/EC50 [HU210]
Where EC50 [compound X] is the EC50 of compound X and EC50 [HU210] is the EC50 of HU210.
In general terms: In a reporter assay the amount or activity of a reporter protein is the signal.

T1 sequence (P34972 whole entry): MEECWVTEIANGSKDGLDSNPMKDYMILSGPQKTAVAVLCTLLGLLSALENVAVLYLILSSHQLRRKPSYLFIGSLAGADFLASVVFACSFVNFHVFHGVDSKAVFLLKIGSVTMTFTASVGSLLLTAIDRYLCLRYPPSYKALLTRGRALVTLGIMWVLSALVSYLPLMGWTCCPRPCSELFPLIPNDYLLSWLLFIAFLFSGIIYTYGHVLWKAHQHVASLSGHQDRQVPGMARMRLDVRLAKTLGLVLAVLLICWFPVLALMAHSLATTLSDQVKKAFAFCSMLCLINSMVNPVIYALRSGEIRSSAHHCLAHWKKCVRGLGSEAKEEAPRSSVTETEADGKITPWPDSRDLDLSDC

As a reminder, the EC50 is the concentration giving half of the maximal effect. A word on the Emax: it is the maximal effect, on the per cent scale that the assay sets. For the molecule `O=C(NCC1CC1)c1cnc(Nc2cccc(Br)c2)cc1C(F)(F)F` [Example 123, N-Cyclopropylmethyl-6-(3-bromo-phenylamino)-4-tri-fluoromethyl-nicotinamide], the EC50 was < 300 nM and the Emax is > 50%.

With `CC(C)c1cc(Nc2cccc(Cl)c2)ncc1C(=O)NCC1CCCCC1` [Example 2, 6-(3-Chlorophenylamino)-N-cyclohexylmethyl-4-isopropylnicotinamide], the concentration giving a half-maximal response (EC50) was < 300 nM and the Emax is > 50%.

For `O=C(NCC1CCCCCC1)c1cnc(Nc2cc(Cl)cc(Cl)c2)cc1C(F)(F)F` [Example 175, N-Cycloheptylmethyl-6-(3,5-dichloro-phenyiamino)-4-trifluoromethyl-nicotinamide], the Emax is > 50%.

Regarding `CC(C)c1cc(Nc2cc(F)cc(F)c2)ncc1C(=O)NCC1CCOCC1` [Example 242, 6-(3,5-Difluoro-phenylamino)-4-isopropyl-N-(tetrahydro-pyran-4-ylmethyl)-nicotinamide], the EC50 was < 300 nM and the maximal response (Emax) is > 50%.

Take `Cc1cc(Cl)ccc1Nc1cc(C(F)(F)F)c(C(=O)NCC2CCOCC2)cn1` [Example 172, N-(Tetrahydropyran-4-yl-methyl)-6-(2-methyl-4-chloro-phenylamino)-4-trifluoro-]: the Emax was > 50%.

Take `CC(C)c1cc(N(C)c2ccc(Cl)c(Cl)c2)ncc1C(=O)NCC1CCOCC1` [Example 44, 6-[(3,4-Dichloro-phenyl)-methyl-amino]-4-isopropyl-N-(tetrahydro-pyran-4-ylmethyl)-nicotinamide]: the Emax was > 50%.

Turning to `CC(C)c1cc(Nc2ccc(Cl)c(Cl)c2)ncc1C(=O)NCC1CCOCC1` [Example 18, 6-(3,4-Dichloro-phenylamino)-4-isopropyl-N-(tetrahydro-pyran-4-ylmethyl)-nicotinamide], the EC50 is < 300 nM and the Emax was > 50%.

In the case of `O=C(NCC1CCC1)c1cnc(Nc2ccc(Cl)cc2F)cc1C(F)(F)F` [Example 160, N-Cyclobutylmethyl-6-(2-fluoro-4-chloro-phenyl-amino)-4-trifluoromethyl-nicotinamide], the EC50 is < 300 nM and the maximal response (Emax) was > 50%.

Regarding `O=C(NCC1CCOCC1)c1cnc(Nc2cc(Cl)cc(Cl)c2)cc1C(F)(F)F` [Example 147, N-(Tetrahydropyran-4-yl-methyl)-6-(3,5-dichloro-phenylamino)-4-trifluoro-methyl-nicotinamide], the half-maximal effective concentration (EC50) was < 300 nM and the maximum response (Emax) is > 50%.

`CC(C)c1nc(Nc2cccc(Cl)c2)ccc1C(=O)NCC1CCS(=O)(=O)C1` (centres unmarked) [Example 209, 6-(3-Chloro-phenylamino)-N-(1,1-dioxo-tetrahydrothiophen-3-ylmethyl)-2-isopropyl-nicotinamide]: the concentration for a half-maximal effect (EC50) was < 300 nM and the Emax was > 50%.

Turning to `Cc1cc(Cl)ccc1Nc1cc(C(C)C)c(C(=O)NCC2CCC2)cn1` [Example 258, 6-(4-Chloro-2-methyl-phenylamino)-N-cyclobutylmethyl-4-isopropyl-nicotinamide], the EC50 is < 300 nM and the Emax was > 50%.

Consider `CC(C)c1cc(Nc2cc(F)cc(F)c2)ncc1C(=O)NCC1CCC1` [Example 265, N-Cyclobutylmethyl-6-(3,5-difluoro-phenylamino)-4-isopropyl-nicotinamide], for which the 50% effective concentration (EC50) was < 300 nM and the maximal response (Emax) is > 50%.

Turning to `CC(C)c1cc(Nc2ccc(Cl)cc2Cl)ncc1C(=O)NCC1CCOCC1` [Example 17, 6-(2,4-Dichloro-phenylamino)-4-isopropyl-N-(tetrahydro-pyran-4-ylmethyl)-nicotinamide], the maximal effect (Emax) was > 50%.

`O=C(NC1CCC1)c1cnc(Nc2cccc(Cl)c2)cc1C(F)(F)F` [Example 110, N-Cyclobutyl-6-(3-chloro-phenylamino)-4-trifluoro-methyl-nicotinamide]: the 50% effective concentration (EC50) is < 300 nM and the Emax is > 50%.

On to `CC(C)(C)c1cc(Nc2cccc(Cl)c2)ncc1C(=O)NCC1CCOCC1` [Example 71, 4-tert-Butyl-6-(3-phenylamino)-N-(tetrahydro-pyran-4-ylmethyl)-nicotinamide], for which the concentration for a half-maximal effect (EC50) was < 300 nM and the Emax was > 50%.

In the case of `CC(C)CNC(=O)c1cnc(Nc2cccc(F)c2)cc1C(F)(F)F` [Example 131, N-Isobutyl-6-(3-fluoro-phenylamino)-4-trifluoro-methyl-nicotinamide], the half-maximal effective concentration (EC50) is < 300 nM and the Emax was > 50%.

`CC(C)c1nc(Nc2cccc(F)c2)ccc1C(=O)NCC1CCCC1` [Example 217, 6-(3-Fluoro-phenylamino)-N-cyclopentylmethyl-2-isopropyl-nicotinamide]: the EC50 is < 300 nM and the Emax is > 50%.

Turning to `CC(C)c1cc(Nc2ccc(C#N)c(C(F)(F)F)c2)ncc1C(=O)NCC1CCOCC1` [Example 96, 6-(4-Cyano-3-trifluoromethyl-phenylamino)-4-isopropyl-N-(tetrahydro-pyran-4-ylmethyl)-nicotinamide], the Emax is > 50%.

On to `O=C(NCC1CCOCC1)c1cnc(Nc2ccc(Cl)cc2F)cc1C(F)(F)F` [Example 162, N-(Tetrahydropyran-4-yl-methyl)-6-(2-fluoro-4-chloro-phenylamino)-4-trifluoro-methyl-nicotinamide], for which the EC50 was < 300 nM and the Emax is > 50%.

`CC(C)c1cc(Nc2cc(Cl)cc(Cl)c2)ncc1C(=O)NCC1CCOCC1` [Example 75, 6-(3,5-Dichloro-phenylamino)-4-isopropyl-N-(tetrahydro-pyran-4-ylmethyl)-nicotinamide]: the EC50 is < 300 nM and the maximal effect (Emax) is > 50%.

For `CC(C)c1nc(Nc2cccc(F)c2)ccc1C(=O)NCC1CCS(=O)(=O)C1` (centres unmarked) [Example 219, 6-(3-Fluoro-phenylamino)-N-(1,1-dioxo-tetrahydrothiophen-3-ylmethyl)-2-isopropyl-nicotinamide], the EC50 was < 300 nM and the Emax is > 50%.

`CC(C)c1cc(Nc2cc(C(F)(F)F)ccc2Br)ncc1C(=O)NCC1CCOCC1` [Example 238, 6-(2-Bromo-5-trifluoromethyl-phenytamino)-4-isopropyl-N-(tetrahydro-pyran-4-ylmethyl)-nicotinamide]: the 50% effective concentration (EC50) was < 300 nM and the maximal response (Emax) was > 50%.

Consider `CC(C)CNC(=O)c1cnc(Nc2cccc(C(F)(F)F)c2)cc1C(C)C` [Example 269, N-Isobutyl-4-isopropyl-6-(3-trifluoromethyl-phenylamlno)-nicotinamide], for which the 50% effective concentration (EC50) is < 300 nM and the Emax is > 50%.

As to `CC(C)c1nc(Nc2cccc(Cl)c2)ccc1C(=O)NCC1CCCCC1` [Example 211, 6-(3-Chloro-phenylamino)-N-cyclohexylmethyl-2-isopropyl-nicotinamide], the EC50 was < 300 nM and the Emax was > 50%.

As for `COc1cccc(Nc2cc(C(C)C)c(C(=O)NCC3CCCC3)cn2)c1` [Example 27, N-Cyctopentylmethyl-4-isopropyl-6-(3-methoxyphenylamino) nicotinamide], the 50% effective concentration (EC50) was < 300 nM and the maximum response (Emax) was > 50%.

Regarding `CC(C)c1cc(Nc2cccc(C(F)(F)F)c2F)ncc1C(=O)NCC1CCC1` [Example 257, N-cyclobutylmethyl-6-(2-fluoro-3-trifluoromethyl-phenylamino)-4-isopropyl-nicotinamide], the EC50 is < 300 nM and the Emax was > 50%.
